Laboratory results from ChEMBL document CHEMBL2401712, “Fused thiazolyl alkynes as potent mGlu5 receptor positive allosteric modulators” (Bioorg Med Chem Lett, 2013).

What was measured:
Assay type in all cases: cell-based
[1] = biological target: T1, Metabotropic glutamate receptor 5 (Homo sapiens, UniProt P41594); experiment: Positive allosteric modulation of human mGlu5 receptor expressed in HEK293 cells assessed as potentiation of L-glutamate-induced activity after 1 hr by FLIPR assay relative to control
Target sequence in this assay (P41594 21-1212 limits assumed): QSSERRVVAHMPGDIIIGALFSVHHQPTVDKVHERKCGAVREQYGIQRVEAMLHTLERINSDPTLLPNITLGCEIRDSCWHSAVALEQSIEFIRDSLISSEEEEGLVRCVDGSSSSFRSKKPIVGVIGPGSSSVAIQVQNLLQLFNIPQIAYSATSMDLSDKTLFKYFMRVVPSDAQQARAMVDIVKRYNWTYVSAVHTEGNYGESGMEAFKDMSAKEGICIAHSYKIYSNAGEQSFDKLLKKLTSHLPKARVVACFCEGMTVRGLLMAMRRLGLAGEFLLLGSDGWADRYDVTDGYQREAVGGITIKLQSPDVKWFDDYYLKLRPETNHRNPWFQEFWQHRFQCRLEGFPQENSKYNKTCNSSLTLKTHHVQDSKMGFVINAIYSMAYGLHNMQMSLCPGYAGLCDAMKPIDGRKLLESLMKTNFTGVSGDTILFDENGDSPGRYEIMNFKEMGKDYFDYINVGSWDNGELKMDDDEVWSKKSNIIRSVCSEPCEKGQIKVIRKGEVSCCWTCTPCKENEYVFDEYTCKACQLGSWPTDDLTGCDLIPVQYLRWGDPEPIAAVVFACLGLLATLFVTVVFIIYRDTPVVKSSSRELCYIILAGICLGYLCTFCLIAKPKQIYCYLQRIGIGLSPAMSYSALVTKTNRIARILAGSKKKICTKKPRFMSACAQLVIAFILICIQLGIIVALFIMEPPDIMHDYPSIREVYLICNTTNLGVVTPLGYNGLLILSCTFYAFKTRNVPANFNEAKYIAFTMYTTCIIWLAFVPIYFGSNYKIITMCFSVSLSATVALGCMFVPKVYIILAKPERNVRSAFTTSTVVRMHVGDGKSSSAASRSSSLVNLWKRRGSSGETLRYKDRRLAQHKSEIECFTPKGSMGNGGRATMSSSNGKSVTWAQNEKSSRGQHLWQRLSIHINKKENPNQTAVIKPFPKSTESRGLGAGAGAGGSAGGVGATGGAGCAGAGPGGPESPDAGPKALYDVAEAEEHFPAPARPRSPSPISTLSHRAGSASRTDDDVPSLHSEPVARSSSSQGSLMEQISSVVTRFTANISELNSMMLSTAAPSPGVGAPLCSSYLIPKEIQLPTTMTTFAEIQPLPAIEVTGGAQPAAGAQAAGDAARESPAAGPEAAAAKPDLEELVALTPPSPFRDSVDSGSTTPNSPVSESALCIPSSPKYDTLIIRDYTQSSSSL

[2] = biological target: T1, Metabotropic glutamate receptor 5; experiment: Negative allosteric modulation of human mGlu5 receptor expressed in HEK293 cells assessed as inhibition of L-glutamate-induced activity after 1 hr by FLIPR assay relative to control; parameters: concentration or dose not given beside the values; conditions: concentration not given here
Target sequence in this assay (P41594 21-1212 limits assumed): as above

[3] = biological target: T1, Metabotropic glutamate receptor 5; experiment: Positive allosteric modulation of human mGlu5 receptor expressed in HEK293 cells assessed as potentiation of L-glutamate-induced activity after 1 hr by FLIPR assay
Target sequence in this assay (P41594 whole entry): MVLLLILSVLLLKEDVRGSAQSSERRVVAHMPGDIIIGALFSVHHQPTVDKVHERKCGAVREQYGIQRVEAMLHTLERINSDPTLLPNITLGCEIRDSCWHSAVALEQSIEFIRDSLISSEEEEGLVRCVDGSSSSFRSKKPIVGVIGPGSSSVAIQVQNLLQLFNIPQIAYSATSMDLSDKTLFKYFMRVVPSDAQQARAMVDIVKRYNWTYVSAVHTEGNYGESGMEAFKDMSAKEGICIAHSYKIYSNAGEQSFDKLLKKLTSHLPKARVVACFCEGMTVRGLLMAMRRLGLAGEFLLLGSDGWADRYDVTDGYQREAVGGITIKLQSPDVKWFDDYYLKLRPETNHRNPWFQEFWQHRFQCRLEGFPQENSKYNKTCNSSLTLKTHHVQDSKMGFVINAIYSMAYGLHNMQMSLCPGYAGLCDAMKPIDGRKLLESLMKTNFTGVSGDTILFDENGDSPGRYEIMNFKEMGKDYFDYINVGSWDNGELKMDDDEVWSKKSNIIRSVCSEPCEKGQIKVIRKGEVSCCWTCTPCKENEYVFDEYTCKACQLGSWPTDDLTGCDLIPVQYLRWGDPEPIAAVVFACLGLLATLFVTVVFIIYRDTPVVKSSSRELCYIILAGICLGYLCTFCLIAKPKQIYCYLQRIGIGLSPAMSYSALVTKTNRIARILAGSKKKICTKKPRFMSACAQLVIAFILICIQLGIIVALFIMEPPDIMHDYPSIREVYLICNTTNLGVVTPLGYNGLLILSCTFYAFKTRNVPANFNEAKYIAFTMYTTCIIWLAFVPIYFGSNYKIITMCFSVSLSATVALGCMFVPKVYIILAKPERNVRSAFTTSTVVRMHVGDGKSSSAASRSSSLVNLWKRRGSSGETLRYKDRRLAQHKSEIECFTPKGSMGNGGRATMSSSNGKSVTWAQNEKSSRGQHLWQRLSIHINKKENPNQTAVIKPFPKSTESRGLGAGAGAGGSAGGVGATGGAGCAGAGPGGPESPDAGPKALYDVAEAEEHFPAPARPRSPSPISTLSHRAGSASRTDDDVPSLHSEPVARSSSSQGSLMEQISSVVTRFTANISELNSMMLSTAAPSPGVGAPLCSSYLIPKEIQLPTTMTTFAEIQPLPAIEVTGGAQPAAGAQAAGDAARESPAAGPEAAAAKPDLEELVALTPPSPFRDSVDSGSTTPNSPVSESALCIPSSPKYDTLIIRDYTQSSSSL

[4] = biological target: T1, Metabotropic glutamate receptor 5; experiment: Negative allosteric modulation of human mGlu5 receptor expressed in HEK293 cells assessed as inhibition of L-glutamate-induced activity after 1 hr by FLIPR assay
Target sequence in this assay (P41594 whole entry): as above

| SMILES | Emax [1] | inhibition [2] | EC50 [3] | IC50 [4] |
| --- | --- | --- | --- | --- |
| O=S(=O)(C1CCCCC1)N1CCc2nc(C#Cc3ccccc3)sc2C1 | -17% | 81% | > 10000 nM | 480 nM |
| O=C(C1CCOC1)N1CCc2nc(C#Cc3ccccc3)sc2C1 (stereo unspecified) | 96% | 45% | 130 nM | > 10000 nM |
| COc1ccccc1C#Cc1nc2c(s1)C(=O)NCC2 | 44% | – | > 10000 nM | > 10000 nM |
| O=C(CC1CCOCC1)N1CCc2nc(C#Cc3ccccc3)sc2C1 | 45% | -2% | 470 nM | > 10000 nM |
| Fc1cccc(C#Cc2nc3c(s2)CN(C2CCCC2)CC3)c1 | -44% | 94% | > 10000 nM | 640 nM |
| Cc1nc(C(=O)N2CCc3nc(C#Cc4ccccc4)sc3C2)cs1 | 110% | 3.7% | 220 nM | > 10000 nM |
| O=C(C1CCCO1)N1CCc2nc(C#Cc3ccccc3)sc2C1 (stereo unspecified) | 89% | -1% | 790 nM | > 10000 nM |
| O=S(=O)(N1CCCCC1)N1CCc2nc(C#Cc3ccccc3)sc2C1 | 6% | 86% | > 10000 nM | 780 nM |
| CC(C)S(=O)(=O)N1Cc2nc(C#Cc3ccccc3)sc2C1 | -35% | 74% | > 10000 nM | 140 nM |
| Fc1cccc(C#Cc2nc3c(s2)CN(C2CCOC2)CC3)c1 (stereo unspecified) | -47% | 91% | > 10000 nM | 400 nM |
| CN1CCC(C(=O)N2CCc3nc(C#Cc4ccccc4)sc3C2)CC1 | 70% | – | 1200 nM | > 10000 nM |
| Cc1cccc(C#Cc2nc3c(s2)C(=O)NCC3)c1 | 50% | – | > 10000 nM | > 10000 nM |
| O=C1NCCc2nc(C#Cc3cccc(Cl)c3)sc21 | 120% | – | 2500 nM | > 10000 nM |
| O=C(C1CCCCO1)N1CCc2nc(C#Cc3ccccc3)sc2C1 (stereo unspecified) | 100% | 35% | 320 nM | > 10000 nM |
| O=C1NCCc2nc(C#Cc3ccc(F)cc3)sc21 | 310% | – | 5200 nM | > 10000 nM |
| O=C(C1CCCCC1)N1CCc2nc(C#Cc3ccccc3)sc2C1 | 153% | – | 167 nM | > 10000 nM |

| SMILES | Emax [1] | inhibition [2] | EC50 [3] | IC50 [4] |
| --- | --- | --- | --- | --- |
| CN1CCc2nc(C#Cc3cccc(F)c3)sc2C1 | -8% | 6% | > 10000 nM | > 10000 nM |
| COC1CC(C(=O)N2CCc3nc(C#Cc4ccccc4)sc3C2)C1 (stereo unspecified) | 43% | -0.2% | 640 nM | > 10000 nM |
| Cc1cccc(C(=O)N2CCc3nc(C#Cc4ccccc4)sc3C2)n1 | 120% | 19% | 160 nM | > 10000 nM |
| O=C1c2sc(C#Cc3ccccc3)nc2CN1C1CC1 | 11% | 59% | > 10000 nM | 23 nM |
| CC(C)S(=O)(=O)N1CCc2nc(C#Cc3ccccc3)sc2C1 | -4% | 75% | > 10000 nM | 11 nM |
| CC(=O)N1CCc2nc(C#Cc3ccccc3)sc2C1 | -18% | 79% | > 10000 nM | 90 nM |
| Fc1cccc(C#Cc2nc3c(s2)CN(C2CCC2)CC3)c1 | -40% | 91% | > 10000 nM | 200 nM |
| O=C1NCCc2nc(C#Cc3ccccc3F)sc21 | 320% | – | 1500 nM | > 10000 nM |
| O=C(N1CCc2nc(C#Cc3ccccc3)sc2C1)N1CC(F)C1 | 27% | 9% | > 10000 nM | > 10000 nM |
| CCN1CCc2nc(C#Cc3ccccc3)sc2C1 | -6% | 51% | > 10000 nM | 1200 nM |
| Cc1cc(C(=O)N2CCc3nc(C#Cc4ccccc4)sc3C2)no1 | 71% | – | 1600 nM | > 10000 nM |
| O=C(C1CCOCC1)N1CCc2nc(C#Cc3ccccc3)sc2C1 | 120% | – | 290 nM | > 10000 nM |
| O=C1NCCc2nc(C#Cc3cccc(F)c3)sc21 | 310% | – | 290 nM | > 10000 nM |
| O=S(=O)(C1CCCCC1)N1Cc2nc(C#Cc3ccccc3)sc2C1 | 110% | – | 150 nM | > 10000 nM |
| O=S(=O)(N1CCCCC1)N1Cc2nc(C#Cc3ccccc3)sc2C1 | 89% | – | 250 nM | > 10000 nM |

The next compounds have a lower EC50 [3] than those just listed; values first:

| Emax [1] | inhibition [2] | EC50 [3] | IC50 [4] | SMILES |
| --- | --- | --- | --- | --- |
| 100% | 3% | 72 nM | > 10000 nM | O=C(N1CCC(F)(F)CC1)N1CCc2nc(C#Cc3ccccc3)sc2C1 |
| 61% | 38% | 85 nM | > 10000 nM | O=C(C1CC(F)C1)N1CCc2nc(C#Cc3ccccc3)sc2C1 (stereo unspecified) |
| 150% | 6.7% | 29 nM | > 10000 nM | COc1cccc(C(=O)N2CCc3nc(C#Cc4ccccc4)sc3C2)c1 |
| 280% | 8% | 18 nM | > 10000 nM | O=C([C@H]1CC2CCC1C2)N1CCc2nc(C#Cc3ccccc3)sc2C1 (stereo partly specified) |
| 170% | 26% | 53 nM | > 10000 nM | O=C(N1CCc2nc(C#Cc3ccccc3)sc2C1)N1CCC(F)(F)C1 |
| 95% | 10% | 3.9 nM | > 10000 nM | O=C(C1CC12CCC2)N1CCc2nc(C#Cc3ccccc3)sc2C1 (stereo unspecified) |
| 120% | 13% | 81 nM | > 10000 nM | CC1CC(C(=O)N2CCc3nc(C#Cc4ccccc4)sc3C2)C1 (stereo unspecified) |
| 100% | 15% | 74 nM | > 10000 nM | O=C(N1CCC(F)CC1)N1CCc2nc(C#Cc3ccccc3)sc2C1 |
| 180% | – | 100 nM | > 10000 nM | CC(C)CCN1CCc2nc(C#Cc3ccccc3)sc2C1 |
| 160% | – | 30 nM | > 10000 nM | O=C(c1cccc(F)c1)N1CCc2nc(C#Cc3ccccc3)sc2C1 |
| 42% | 6.3% | 9.4 nM | > 10000 nM | CC1CC1C(=O)N1CCc2nc(C#Cc3ccccc3)sc2C1 (stereo unspecified) |
| 72% | 45% | 2.5 nM | > 10000 nM | O=C(C1CC(F)(F)C1)N1CCc2nc(C#Cc3cccc(F)c3)sc2C1 |
| 170% | 26% | 8.7 nM | > 10000 nM | O=C(c1cccc(Cl)c1)N1CCc2nc(C#Cc3ccccc3)sc2C1 |
| 32% | 28% | 110 nM | > 10000 nM | CCCCN1CCc2nc(C#Cc3ccccc3)sc2C1 |
| 120% | – | 51 nM | > 10000 nM | O=C1NCCc2nc(C#Cc3cccnc3)sc21 |
| 243% | – | 112 nM | > 10000 nM | O=C1NCCc2nc(C#Cc3ccccc3)sc21 |
| 120% | – | 75 nM | > 10000 nM | O=C(N1CCCCC1)N1CCc2nc(C#Cc3ccccc3)sc2C1 |
| 170% | – | 99 nM | > 10000 nM | Cc1cccc(C(=O)N2CCc3nc(C#Cc4ccccc4)sc3C2)c1 |
| 150% | – | 2.5 nM | > 10000 nM | O=C1c2sc(C#Cc3ccccc3)nc2CN1C1CCCC1 |
